The results in this text go back to patent US20220370453A1 (Storm Therapeutics Ltd, priority 2019, published 2022).

SMILES strings stand for the structures.

The target of the first assay is T1, BCDIN3D (Homo sapiens, UniProt Q7Z5W3).
T1 sequence (Q7Z5W3 1-292): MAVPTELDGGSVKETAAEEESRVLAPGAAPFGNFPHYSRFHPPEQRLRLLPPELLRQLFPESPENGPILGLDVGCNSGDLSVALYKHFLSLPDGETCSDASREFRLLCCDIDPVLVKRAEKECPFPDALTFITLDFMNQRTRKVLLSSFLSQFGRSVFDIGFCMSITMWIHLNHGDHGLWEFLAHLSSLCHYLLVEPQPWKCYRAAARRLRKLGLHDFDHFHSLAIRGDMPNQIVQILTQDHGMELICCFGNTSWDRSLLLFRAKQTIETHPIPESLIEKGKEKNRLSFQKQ
Description: BCDIN3D IC50 RFMS (RapidFire) assay with mini-helix. Type of assay: biochemical. As to conditions: mini-helix 0.2 μM and SAM 6 μM as substrates, 25 nM enzyme, 1 hr at 37° C. On the procedure: The following General Methods details the assay conditions for the Biological assays.
BCDIN3D IC50 RFMS Assay with Mini-Helix
The enzymatic assay was performed in a 384-well polypropylene plate in assay buffer with 25 mM Tris pH 8.0, 10 mM DTT, 1 mM EDTA, 0.03% BSA in a final assay volume of 20 μL. The enzyme with a final concentration of 25 nM was pre-incubated with the respective compound at 1% DMSO final assay concentration over 10 min at room temperature. The reaction was initiated by addition of 0.2 μM final assay concentration of mini-helix and 6 μM final concentration of SAM as substrates. After a 1 hr incubation at 37° C., the reaction was terminated with 40 μL of stop solution of 7.5% trichloroactetic acid in water containing 112.5 nM D4-SAH and 30 nM ^13C10-SAH used as internal standards. The SAH product concentrations as well as both internal standards were analyzed by a RapidFire High Throughput Mass Spectrometry System (Agilent Technologies, Santa Clara, Calif.) using an AP14000 triple quadrupole mass spectrometer (AB Sciex Framingham, Mass.).
`[2H]C([2H])([2H])n1ncc2c(NC(C)(C)C)nc(NCC(N)c3ccccc3F)nc21` (stereo in doubt) [Compound 7.16, N6-[(2R)-2-amino-2-(2-fluorophenyl)ethyl]-N4-tert-butyl-1-(trideuteriomethyl)pyrazolo[3,4-d]pyrimidine-4,6-diamine]: the IC50 came out at 0.069 µM. With `Cn1ncc2c(Nc3cccc(C(F)(F)F)c3)nc(NCCN)nc21` [Compound 1.02, N6-(2-aminoethyl)-1-methyl-N4-[3-(trifluoromethyl)phenyl]-1H-pyrazolo[3,4-d]pyrimidine-4,6-diamine], inhibition was half-maximal at 4.27 µM (IC50).

In turn, `COc1ccc(CCNc2nc(NCCN)nc3c2cnn3C)cn1` [Compound 1.07, N6-(2-aminoethyl)-N4-[2-(6-methoxypyridin-3-yl)ethyl]-1-methyl-1H-pyrazolo[3,4-d]pyrimidine-4,6-diamine] had an IC50 of 4.38 µM. This IC50 and that of the molecule before are within 1.5-fold of each other. As to `COc1ccc(CCNc2nc(NCCN)nc3c2cnn3C)cc1Cl` [Compound 1.08, N6-(2-aminoethyl)-N4-[2-(3-chloro-4-methoxyphenyl)ethyl]-1-methyl-1H-pyrazolo[3,4-d]pyrimidine-4,6-diamine], the IC50 came out at 2.8 µM. Regarding `Cn1ncc2c(NCCc3ccc4c(c3)OCO4)nc(NCCN)nc21` [Compound 1.09, N6-(2-aminoethyl)-N4-[2-(2H-1,3-benzodioxol-5-yl)ethyl]-1-methyl-1H-pyrazolo[3,4-d]pyrimidine-4,6-diamine], the IC50 stood at 4.07 µM. The IC50 values of the last two molecules are within 1.5-fold of each other.

For `Cn1ncc2c(NCc3ccc4occc4c3)nc(NCCN)nc21` [Compound 1.10, N6-(2-aminoethyl)-N4-[(1-benzofuran-5-yl)methyl]-1-methyl-1H-pyrazolo[3,4-d]pyrimidine-4,6-diamine], it took 5.49 µM to reach half-maximal inhibition (IC50). As for `Cn1ncc2c(NCC3CCN(S(=O)(=O)c4ccccc4)CC3)nc(NCCN)nc21` [Compound 1.12, N6-(2-aminoethyl)-N4-{[1-(benzenesulfonyl)piperidin-4-yl]methyl}-1-methyl-1H-pyrazolo[3,4-d]pyrimidine-4,6-diamine], the concentration for half-maximal inhibition (IC50) came out at 9.52 µM. For the molecule `Cn1ncc2c(NCc3ccc4nc[nH]c4c3)nc(NCCN)nc21` [Compound 1.13, N6-(2-aminoethyl)-N4-[(1H-1,3-benzodiazol-5-yl)methyl]-1-methyl-1H-pyrazolo[3,4-d]pyrimidine-4,6-diamine], it took 7.8 µM to reach half-maximal inhibition (IC50). This IC50 and that of the molecule before are within 1.5-fold of each other. In the case of `Cn1ncc2c(NCc3ccc(F)c(Cl)c3)nc(NCCN)nc21` [Compound 1.17, N6-(2-aminoethyl)-N4-[(3-chloro-4-fluorophenyl)methyl]-1-methyl-1H-pyrazolo[3,4-d]pyrimidine-4,6-diamine], the IC50 was 6.9 µM. For the molecule `Cn1ncc2c(NCc3ccc(Cl)cc3F)nc(NCCN)nc21` [Compound 1.18, N6-(2-aminoethyl)-N4-[(4-chloro-2-fluorophenyl)methyl]-1-methyl-1H-pyrazolo[3,4-d]pyrimidine-4,6-diamine], it took 4.75 µM to reach half-maximal inhibition (IC50). The same measure, in the same setting: the value for `Cn1ncc2c(NCc3ccc(F)cc3F)nc(NCCN)nc21` [Compound 1.19, N6-(2-aminoethyl)-N4-[(2,4-difluorophenyl)methyl]-1-methyl-1H-pyrazolo[3,4-d]pyrimidine-4,6-diamine] was 6.38 µM.

`COc1cc(Cl)cc(CNc2nc(NCCN)nc3c2cnn3C)c1` [Compound 1.20, N6-(2-aminoethyl)-N4-[(3-chloro-5-methoxyphenyl)methyl]-1-methyl-1H-pyrazolo[3,4-d]pyrimidine-4,6-diamine]: 3.53 µM corresponded to half-maximal inhibition (IC50). Compared with the last molecule, the IC50 is about 1.8-fold lower. With `COc1ccc(CNc2nc(NCCN)nc3c2c(C)nn3C)cc1Cl` [Compound 1.29, N6-(2-aminoethyl)-N4-[(3-chloro-4-methoxyphenyl)methyl]-1,3-dimethyl-1H-pyrazolo[3,4-d]pyrimidine-4,6-diamine], it took 2.9 µM to reach half-maximal inhibition (IC50). With `COc1ccc(C(=O)N2CCC(CNc3nc(NCCN)nc4c3cnn4C)CC2)cc1Cl` [Compound 1.37, N6-(2-aminoethyl)-N4-{[1-(3-chloro-4-methoxybenzoyl)piperidin-4-yl]methyl}-1-methyl-1H-pyrazolo[3,4-d]pyrimidine-4,6-diamine], half-maximal inhibition (IC50) required 7.62 µM. Against the preceding molecule, the IC50 is about 2.6-fold higher. For `COc1ccc(CNc2nc(NCCN)nc3c2cnn3C)cc1` [Compound 1.39, N6-(2-aminoethyl)-N4-[(4-methoxyphenyl)methyl]-1-methyl-1H-pyrazolo[3,4-d]pyrimidine-4,6-diamine], the IC50 worked out at 6.91 µM. The IC50 values of the last two molecules are within 1.5-fold of each other.

`Cn1ncc2c(NCC3CCN(C(=O)OC(C)(C)C)CC3)nc(NCCN)nc21` [Compound 1.40, tert-butyl 4-[({6-[(2-aminoethyl)amino]-1-methyl-1H-pyrazolo[3,4-d]pyrimidin-4-yl}amino)methyl]piperidine-1-carboxylate] had an IC50 of 6.19 µM.

`Cn1ncc2c(NCC3CCN(Cc4ccccc4)CC3)nc(NCCN)nc21` [Compound 1.41, N6-(2-aminoethyl)-N4-[(1-benzylpiperidin-4-yl)methyl]-1-methyl-1H-pyrazolo[3,4-d]pyrimidine-4,6-diamine] registered an IC50 of 21.1 µM. The molecule `Cn1ncc2c(NCC3CCN(C(=O)c4ccccc4)CC3)nc(NCCN)nc21` [Compound 1.42, N6-(2-aminoethyl)-N4-[(1-benzoylpiperidin-4-yl)methyl]-1-methyl-1H-pyrazolo[3,4-d]pyrimidine-4,6-diamine] returned an IC50 of 5.76 µM. Turning to `Cc1ccc(CNc2nc(N[C@@H]3CCCC[C@H]3N)nc3c2cnn3C)cc1Cl` [Compound 7.03, 6-N-[(1R,2R)-2-aminocyclohexyl]-4-N-[(3-chloro-4-methylphenyl)methyl]-1-methylpyrazolo[3,4-d]pyrimidine-4,6-diamine], the IC50 stood at 8.58 µM.

Take `Cn1ncc2c(NC(C)(C)C)nc(NC[C@H](N)c3ccc(F)c(F)c3)nc21` [Compound 7.20, N6-[(2R)-2-amino-2-(3,4-difluorophenyl)ethyl]-N4-tert-butyl-1-methyl-1H-pyrazolo[3,4-d]pyrimidine-4,6-diamine]: half-maximal inhibition (IC50) required 0.8 µM. The same measure, in the same setting: the figure for `Cn1ncc2c(NC(C)(C)C)nc(NC[C@@H](N)c3ccc(F)c(F)c3)nc21` [Compound 7.21, N6-[(2S)-2-amino-2-(3,4-difluorophenyl)ethyl]-N4-tert-butyl-1-methyl-1H-pyrazolo[3,4-d]pyrimidine-4,6-diamine] is 0.00462 µM. `Cn1ncc2c(NC(C)(C)C)nc(NC[C@H](N)C3CCCCC3)nc21` [Compound 7.22, N6-[(2R)-2-amino-2-cyclohexylethyl]-N4-tert-butyl-1-methyl-1H-pyrazolo[3,4-d]pyrimidine-4,6-diamine] yielded an IC50 of 0.8 µM.

Still in this assay, the particulars now being: mini-helix substrate 0.2 μM, SAM 6 μM, 25 nM enzyme.
Turning to `Cn1ncc2c(NC34CC(C3)C4)nc(NCC3(N)CC3)nc21` [Compound 2.38, 6-N-[(1-aminocyclopropyl)methyl]-4-N-(3-bicyclo[1.1.1]pentanyl)-1-methylpyrazolo[3,4-d]pyrimidine-4,6-diamine], the IC50 is 1.71 µM. This lies in the single-digit micromolar range. `Cc1ccc(CNc2nc(NC(C)CN)nc3c2cnn3C)cc1Cl` (stereo not drawn) [Compound 3.02, 6-N-(1-aminopropan-2-yl)-4-N-[(3-chloro-4-methylphenyl)methyl]-1-methylpyrazolo[3,4-d]pyrimidine-4,6-diamine] registered an IC50 of 6.56 µM. This IC50 lies about 3.8-fold higher than the previous one. Consider `Cc1ccc(CNc2nc(NC[C@H](C)N)nc3c2cnn3C)cc1Cl` [Compound 3.03, 6-N-[(2S)-2-aminopropyl]-4-N-[(3-chloro-4-methylphenyl)methyl]-1-methylpyrazolo[3,4-d]pyrimidine-4,6-diamine], for which the IC50 is 5.71 µM.

With `Cc1ccc(CNc2nc(NC[C@H]3CCCN3)nc3c2cnn3C)cc1Cl` [Compound 3.17, 4-N-[(3-chloro-4-methylphenyl)methyl]-1-methyl-6-N-[[(2R)-pyrrolidin-2-yl]methyl]pyrazolo[3,4-d]pyrimidine-4,6-diamine], the IC50 was 9.57 µM. Regarding `[2H]C([2H])([2H])Nc1nc(NCC(N)c2ccccc2)nc2c1cnn2C` (stereo not drawn) [Compound 4.37, 6-N-(2-amino-2-phenylethyl)-1-methyl-4-N-(trideuteriomethyl)pyrazolo[3,4-d]pyrimidine-4,6-diamine], the IC50 came out at 8.01 µM. For `Cn1ncc2c(NC(C)(C)CCO)nc(NC[C@H](N)c3ccccc3)nc21` [Compound 4.70, 3-[[6-[[(2R)-2-amino-2-phenyl-ethyl]amino]-1-methyl-pyrazolo[3,4-d]pyrimidin-4-yl]amino]-3-methyl-butan-1-ol], the IC50 came out at 1.3 µM. `Cn1ncc2c(NC(C)(C)C)nc(NCC(N)c3ccc(F)cc3)nc21` (stereo not drawn) [Compound 5.30, N6-[2-amino-2-(4-fluorophenyl)ethyl]-N4-tert-butyl-1-methyl-1H-pyrazolo[3,4-d]pyrimidine-4,6-diamine] came in with an IC50 of 0.37 µM. Consider `Cn1ncc2c(NC(C)(C)C)nc(NCC(N)c3ccc(F)c(F)c3)nc21` (stereo not drawn) [Compound 5.31, N6-[2-amino-2-(3,4-difluorophenyl)ethyl]-N4-tert-butyl-1-methyl-pyrazlo[3,4-d]pyrimidine-4,6-diamine], for which the IC50 was found to be 0.35 µM.
